pKd, pKi: −log10 of the molar value. Where a name gives a salt, the structure may show the parent alone.
Legend:
[1] = system: maximal electroshock-induced seizures (MES); assay: Maximum electroshock seizure test (MES), oral administration to mice; assay type: in vivo; conditions: Mus musculus, po, 30 minutes before the test, dose protecting 50% of animals
Text: The compounds of the present invention may be tested for in vivo anticonvulsant activity after i.v., p.o. or i.p. injection using a number of anticonvulsant tests in mice, including the maximum electroshock seizure test (MES). Maximum electroshock seizures were induced in male NSA mice weighing between 15-20 g and male Sprague-Dawley rats weighing between 200-225 g by application of current (50 mA, 60 pulses/sec, 0.8 msec pulse width, 1 sec duration, D.C., mice; 99 mA, 125 pulses/sec, 0.8 msec pulse width, 2 sec duration, D.C., rats) using a Ugo Basile ECT device (Model 7801). Mice were restrained by gripping the loose skin on their dorsal surface and saline-coated corneal electrodes were held lightly against the two corneae. Rats were allowed free movement on the bench top and ear-clip electrodes were used. […] A tonic seizure was defined as a hindlimb extension in excess of 90 degrees from the plane of the body. Results were treated in a quantal manner.
The ability of 3-[4-(2,4-difluorophenoxy)phenyl]-1H-pyrazole-1-carboxamide to block maximal electroshock-induced seizures (MES) was determined as described earlier.
3-[4-(2,4-Difluorophenoxy)phenyl]-1H-pyrazole-1-carboxamide was administered p.o. to mice 30 minutes before the test procedure.
The following compounds in Table 1 were tested in MES as described for 3-[4-(2,4-difluorophenoxy)phenyl]-1H-pyrazole-1-carboxamide: […]

[2] = molecular target: T1, hSkM1 isoform of Na+ channels (Homo sapiens, UniProt P35499); assay: Electrophysiological Assay 1: whole-cell patch-clamp of Na+ currents in HEK-293 cells expressing hSkM1; assay type: cell-based; conditions: for pKi: HEK-293 cells stably expressing hSkM1, concentration that produces half maximal inhibition
T1 construct: expressed in transfected cells
Protocol: Cell preparation: HEK-293 cells stably expressing the hSkM1 isoform of Na^+ channels (generous gift from Dr. A. L. George, Vanderbilt University Medical School) were cultured using standard techniques, as described previously (Verdoorn, T. A, et al., Neuron 4:919-928 (1990)). For electrophysiology, cells were plated onto 35 mm Petri dishes (pre-coated with poly-D-lysine) at a density of 1:40 on the day of re-seeding from confluent cultures. Our experience has been that cells are suitable for recordings for 2-3 days after plating.
Patch-clamp recordings of voltage-sensitive Na^+ currents: Whole-cell voltage-clamp recordings were made using conventional patch-clamp techniques (Hamill et al., Pfluegers Arch. 391:85-100 (1981)) with an Axopatch 200A amplifier (Axon Instruments, Foster City, Calif.). […] The recording chamber was continuously superfused with the external solution (150 mM NaCl, 5.4 mM KCl, 1.8 mM CaCl2, 1 mM MgCl2, 10 mM HEPES, 10 mM glucose, pH 7.4 (NaOH)) at a speed of about 1 mL/min. Recording pipettes were pulled from thick-walled capillaries (WPI, Sarasota, Fla.) and fire-polished. The pipette resistances ranged from 1 to 3 MΩ when the pipettes were filled with internal solution containing (in mM): 110 CsF, 10 NaCl, 5 MgCl2, 11 EGTA, 10 HEPES, pH adjusted to 7.4 with CsOH. Osmolality was set with a difference of 15-20 mmol/kg between external and internal solutions (lower inside the cell). Drugs and intervening wash-outs were applied through a linear array of flow pipes (Drummond Microcaps, 2 μL, 64-mm length). Compounds are dissolved in dimethylsulfoxide (DMSO) to make a 30 mM stock solution, which was subsequently diluted into the external solution to give final concentrations of 0.1-100 μM. At the highest (1%) concentration, DMSO inhibited the size of Na^+ current only slightly. Currents were recorded at room temperature (22-25° C.), filtered at 5 kHz with an active 8-pole Bessel filter (Frequency Devices, Haverhill, Mass.), digitized at 10-50 μs intervals, and stored using Digidata 1200 analog/digital interface with Pclamp6/Clampex software (Axon Instruments). Series resistance was cancelled typically by ˜75% when necessary. The inhibitory potency of drugs was assessed by measuring reductions in the peak amplitude of Na^+ currents induced by increasing concentrations of compounds tested. Na^+ currents were elicited by stepping membrane voltage from holding potentials over the range −100 mV to −50 mV, to a pulse potential of −10 mV. The test pulse duration was 5-10 msec, repeated at a frequency≦1 Hz. Concentration-inhibition curves were fitted with equation 1:
I/Icontrol=1/(1+([compound]/IC50)) Eq. 1
where Icontrol is the maximal Na^+ current in the absence of antagonist, [compound] is the drug concentration, and IC50 is the concentration of compound that produces half maximal inhibition.
The apparent antagonist dissociation constant (Kd) of this compound for inactivated sodium channels is ˜8 nM.
The Ki (the concentration of a compound that produces half maximal inhibition) value for 3-[4-(4-fluorophenoxy)phenyl]-1H-pyrazole-1-carboxamide and other tested compounds are presented in Table 2.

[3] = molecular target: rBIIA isoform of Na+ channels (Rattus norvegicus, UniProt P04775); assay: Electrophysiological Assay 2: whole-cell patch-clamp of Na+ currents in HEK-293 cells expressing rBIIA; assay type: cell-based; conditions: for pKi: HEK-293 cells stably expressing rBIIA, concentration that produces half maximal inhibition
Protocol: Cell preparation: HEK-293 (NaIIA-B2) cell line stably expressing the rBIIA isoform of Na^+ channels was established in-house. The cells were cultured using standard techniques, as described previously (Verdoorn, T. A, et al., Neuron 4:919-928 (1990)). For electrophysiology, cells were plated onto poly-D-lysine pre-coated Cellware 35 mm Petri dishes (BIOCOAT, Becton Dickinson) at a density of ˜10^4 cells/dish on the day of re-seeding from confluent cultures. Our experience has been that cells are suitable for recordings for 2-3 days after plating.
Patch-clamp recordings of voltage-sensitive Na^+ currents. Whole-cell voltage-clamp recordings were made using conventional patch-clamp techniques (Hamill et al., Pfluegers Arch. 391:85-100 (1981)) with an Axopatch 200A amplifier (Axon Instruments, Foster City, Calif.). The recording chamber was continuously superfused with the external solution (150 mM NaCl, 5.4 mM KCl, 1.8 mM CaCl2, 1 mM MgCl2, 10 mM HEPES, 10 mM glucose, pH7.4 adjusted with NaOH, osmolality ˜320 mmol/kg) at a speed of about 1 mL/min. Recording pipettes were pulled from the thick-walled capillaries (WPI, Sarasota, Fla.) and fire-polished. The pipette resistances ranged from 1 to 3 MΩ when the pipettes were filled with internal solution containing (in mM): 130 CsF, 20 NaCl, 2 MgCl2, 10 EGTA, 10 HEPES, pH adjusted to 7.4 with CsOH, osmolality ˜310 mmol/kg. Drugs and intervening wash-outs were applied through a linear array of flow pipes (Drummond Microcaps, 2 μL, 64-mm length). Compounds are dissolved in dimethylsulfoxide (DMSO) to make a 30 mM stock solution, which was subsequently diluted into the external solution to give final concentrations of 0.1-100 μM. At the highest (1%) concentration, DMSO inhibited the size of Na^+ current only slightly. Currents were recorded at room temperature (22-25° C.), filtered at 3 kHz with an active 8-pole Bessel filter (Frequency Devices, Haverhill, Mass.), digitized at 10-50 μs intervals, and stored using Digidata 1200 analog/digital interface with Pclamp6/Clampex software (Axon Instruments). Series resistance was cancelled typically by ˜75% when necessary.
The following voltage pulse protocols were used to assess the potency and kinetics of inhibition of the Na^+ channels by the compounds (FIG. 1). [drawing 33]
FIG. 1. Voltage pulse protocols. A. IV-curves. C. Steady-state inactivation. B. Repriming kinetics. D. Time course of binding.
Current-voltage relationship (IV-curve), protocol A, was used to report the voltage at which the maximal inward Na^+ current is achieved. This voltage was used throughout the experiment as testing voltage, Vt. The steady-state inactivation (or, availability) curve, protocol C, was used to get the voltage at which almost complete (≧95%) inactivation of Na^+ channels occurs; it served as voltage for conditioning prepulse, Vc, throughout the experiment. Protocol B reports how fast the channels recover from inactivation at hyperpolarized voltages. This permitted us to set up the duration of the hyperpolarization gap which is used in measurement of the kinetics of binding of compounds to inactivated Na^+ channels (protocol D). Channel repriming under control conditions was fast (≧90% recovery during first 5-10 ms). If a drug substantially retards the repriming process then it becomes possible (protocol D) to accurately measure the kinetics of binding of the inhibitor to inactivated channels as well as the steady-state affinity (k+ and Ki). To estimate k+ values the reduction in peak currents in successive trials with varying pre-pulse duration was plotted as a function of pre-pulse duration and the time constant (τ) measured by mono-exponential fit. A plot of 1/τ as a function of antagonist concentration then allowed calculating of the macroscopic binding rates of the antagonists. To determine Ki values the partial inhibition curves measured by fractional responses in steady-state were fitted with the logistic equation: […]

T1 sequence (P35499 whole entry, canonical isoform): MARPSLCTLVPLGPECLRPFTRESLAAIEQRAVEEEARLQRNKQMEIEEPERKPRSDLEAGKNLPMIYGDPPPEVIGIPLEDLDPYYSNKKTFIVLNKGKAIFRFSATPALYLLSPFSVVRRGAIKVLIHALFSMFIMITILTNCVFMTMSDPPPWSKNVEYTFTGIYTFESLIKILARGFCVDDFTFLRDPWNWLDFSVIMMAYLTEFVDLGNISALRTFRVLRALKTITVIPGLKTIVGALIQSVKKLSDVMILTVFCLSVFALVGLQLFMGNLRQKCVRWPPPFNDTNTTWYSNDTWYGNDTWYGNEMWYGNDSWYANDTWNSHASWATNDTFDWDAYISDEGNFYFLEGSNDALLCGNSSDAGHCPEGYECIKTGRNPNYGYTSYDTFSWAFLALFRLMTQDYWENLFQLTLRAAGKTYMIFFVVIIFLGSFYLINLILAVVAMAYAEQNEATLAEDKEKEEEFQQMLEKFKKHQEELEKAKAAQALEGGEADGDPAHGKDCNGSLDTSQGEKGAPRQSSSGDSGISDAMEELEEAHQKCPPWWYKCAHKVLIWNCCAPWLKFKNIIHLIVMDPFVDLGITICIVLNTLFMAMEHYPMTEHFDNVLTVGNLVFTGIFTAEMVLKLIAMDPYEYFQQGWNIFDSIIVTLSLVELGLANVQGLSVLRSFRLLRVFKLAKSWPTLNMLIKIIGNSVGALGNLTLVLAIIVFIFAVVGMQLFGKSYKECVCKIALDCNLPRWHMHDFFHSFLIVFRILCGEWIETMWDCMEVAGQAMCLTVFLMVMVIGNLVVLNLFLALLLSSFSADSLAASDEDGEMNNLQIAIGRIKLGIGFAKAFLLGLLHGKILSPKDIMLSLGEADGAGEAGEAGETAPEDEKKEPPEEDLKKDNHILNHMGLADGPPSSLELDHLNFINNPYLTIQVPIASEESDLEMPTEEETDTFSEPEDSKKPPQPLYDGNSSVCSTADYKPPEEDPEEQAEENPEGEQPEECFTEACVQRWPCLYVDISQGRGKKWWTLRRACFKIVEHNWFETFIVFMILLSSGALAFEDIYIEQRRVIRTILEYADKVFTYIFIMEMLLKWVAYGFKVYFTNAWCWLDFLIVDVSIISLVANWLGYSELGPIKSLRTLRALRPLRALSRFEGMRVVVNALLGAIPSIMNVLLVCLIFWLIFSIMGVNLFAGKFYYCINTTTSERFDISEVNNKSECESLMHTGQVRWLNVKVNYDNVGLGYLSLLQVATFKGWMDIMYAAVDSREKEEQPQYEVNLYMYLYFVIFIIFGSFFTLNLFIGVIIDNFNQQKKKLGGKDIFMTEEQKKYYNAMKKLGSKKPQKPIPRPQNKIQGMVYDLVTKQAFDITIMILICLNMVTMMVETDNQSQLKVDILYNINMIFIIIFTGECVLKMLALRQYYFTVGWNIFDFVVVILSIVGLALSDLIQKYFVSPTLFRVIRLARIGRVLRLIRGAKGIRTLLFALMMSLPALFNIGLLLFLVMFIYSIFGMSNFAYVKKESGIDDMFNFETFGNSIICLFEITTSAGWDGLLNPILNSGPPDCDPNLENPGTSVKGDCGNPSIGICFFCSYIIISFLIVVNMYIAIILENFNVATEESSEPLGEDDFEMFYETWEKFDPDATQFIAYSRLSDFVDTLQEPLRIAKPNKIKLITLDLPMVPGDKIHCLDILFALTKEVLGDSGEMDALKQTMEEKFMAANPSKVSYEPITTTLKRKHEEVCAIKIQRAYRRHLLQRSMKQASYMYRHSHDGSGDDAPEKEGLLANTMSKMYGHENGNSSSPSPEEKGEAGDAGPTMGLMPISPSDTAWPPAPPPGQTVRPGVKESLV

Row | Compound | melting point | ED50 [1] | pKi [2] | pKi [3] | further results
1 | Fc1ccc(Oc2ccc(-c3c[nH]cn3)cc2)c(F)c1 (as salt: hydrochloride) [4-[4-(2,4-Difluorophenoxy)phenyl]-1H-imidazole] | 192 to 195 °C | – | – | – | –
2 | NC(=O)n1ccc(-c2ccc(Oc3ccc([N+](=O)[O-])cc3)cc2)n1 [3-[4-(4-Nitrophenoxy)phenyl]-1H-pyrazole-1-carboxamide] | – | 2 mg/kg | 7.96 | – | –
3 | O=[N+]([O-])c1ccc(Oc2ccc(-c3cc[nH]n3)cc2)cc1 [5-[4-(4-nitrophenoxy)phenyl]-1H-pyrazole, 3-[4-(4-nitrophenoxy)phenyl]-1H-pyrazole] | – | – | 6.96 | – | –
4 | NC(=O)n1ccc(-c2ccc(Oc3ccc(C(F)(F)F)cc3)cc2)n1 [3-[4-(4-Trifluoromethylphenoxy)phenyl]-1H-pyrazole-1-carboxamide] | 131 to 132 °C | 3.9 mg/kg | – | – | –
5 | Fc1ccc(Oc2ccc(-c3ncc[nH]3)cc2)cc1 [2-[4-(4-Fluorophenoxy)phenyl]-1H-imidazole] | – | – | – | 5.96 | –
6 | Cl.Fc1ccc(Oc2ccc(-c3c[nH]cn3)cc2F)cc1 [4-[4-(4-Fluorophenoxy)-3-fluorophenyl]-1H-imidazole, hydrochloride salt] | – | – | – | 6.60 | inhibition of voltage-gated sodium currents ([3]; HEK-293 cells stably expressing the rBIIA isoform of Na+ channels): dose-dependent inhibition; pKd ([3]; HEK-293 cells stably expressing the rBIIA isoform of Na+ channels, read-out: apparent antagonist dissociation constant (Kd) for inactivated sodium channels): 6.60; potency towards Na+ channels in their resting states ([3]; rBIIA, blocking effect highly sensitive to the holding voltage): weak potency
7 | CSc1cc(-c2ccc(Oc3ccccc3)cc2)nn1C(N)=O [5-Methylthio-3-(4-phenoxyphenyl)-1H-pyrazole-1-carboxamide] | 142 to 144 °C | – | 7.10 | – | –
8 | NC(=O)Cn1nccc1-c1ccc(Oc2ccc(F)cc2)cc1 [2-{5-[4-(4-Fluorophenoxy)phenyl]-pyrazol-1-yl}-acetamide] | – | 2.6 mg/kg | – | 5.81 | –
9 | NC(=O)c1coc(-c2ccc(Oc3ccc(F)cc3)cc2)n1 [2-[4-(4-Fluorophenoxy)phenyl]oxazole-4-carboxamide] | – | – | – | 5.88 | –
10 | NC(=O)n1ccc(-c2ccc(Oc3ccc(F)cc3F)cc2)n1 [3-[4-(2,4-Difluorophenoxy)phenyl]-1H-pyrazole-1-carboxamide] | – | 3.5 mg/kg | 8.00 | – | –
11 | 1-[3-[4-(4-Nitrophenoxy)phenyl]-1H-pyrazolyl]ethanone | – | – | 8.05 | – | –
12 | NC(=O)n1ccc(-c2ccc(Oc3ccc(Cl)cc3F)cc2)n1 [3-[4-(4-Chloro-2-fluorophenoxy)phenyl]-1H-pyrazole-1-carhoxamide] | 150 to 151 °C | 3.1 mg/kg | 8.52 | – | –
13 | Fc1ccc(Oc2ccc(-c3ccn(-c4ncccn4)n3)cc2)cc1 [2-{3-[4-(4-Fluorophenoxy)phenyl]-pyrazol-1-yl}-pyrimidine] | – | 4.7 mg/kg | – | 6.38 | –
14 | NC(=O)c1nc(-c2ccc(Oc3ccc(F)cc3)c(F)c2)cs1 [4-[4-(4-Fluorophenoxy)-3-fluorophenyl]-thiazole-2-carboxamide] | – | – | 7.70 | – | –
15 | Fc1ccc(Oc2ccc(-c3c[nH]cn3)cc2)c(F)c1 [4-[4-(2,4-Difluorophenoxy)phenyl]-1H-imidazole] | 144 to 148 °C | – | – | 5.99 | –
16 | NC(=O)n1ccc(-c2ccc(Oc3ccccc3)cc2)n1 [3-(4-phenoxyphenyl)-1H-pyrazole-1-carboxamide] | – | – | 7.82 | – | –
17 | O=C(Cn1nccc1-c1ccc(Oc2ccc(F)cc2)cc1)N1CCOCC1 [1-Morpholin-4-yl-2-{5-[4-(4-fluorophenoxy)phenyl]-pyrazol-1-yl}-ethanone] | 122 to 124 °C | 4.4 mg/kg | – | – | –
18 | NC(=O)n1ccc(-c2ccc(Oc3ccc(F)cc3)cc2)n1 [3-[4-(4-Fluorophenoxy)phenyl]-1H-pyrazole-1-carboxamide] | – | 7 mg/kg | 8.10 | – | inhibition of voltage-gated sodium currents ([2]; HEK-293 cells stably expressing hSkM1 sodium channels): dose-dependent inhibition; pKd ([2]; HEK-293 cells stably expressing hSkM1 sodium channels, read-out: apparent antagonist dissociation constant (Kd) for inactivated sodium channels): ~8.10; potency towards Na+ channels in their resting states ([2]; hSkM1, blocking effect highly sensitive to the holding voltage): weak potency
19 | Cl.FC(F)(F)c1ccc(Oc2ccc(-c3c[nH]cn3)cc2)cc1 [4-(4-(4-Trifluoromethylphenoxy)phenyl]-1H-imidazole, hydrochloride salt] | 230 to 232 °C | 7.7 mg/kg | – | – | –

— US6737418B2, “Aryl substituted pyrazoles, imidazoles, oxazoles, thiazoles and pyrroles, and the use thereof” (Euro-Celtique S.A., priority 1999, dated 2004)
